Experimental data from US7964614B2, “Systemic inflammatory markers as diagnostic tools in the prevention of atherosclerotic diseases and as tools to aid in the selection of agents to be used for the prevention and treatment of atherosclerotic disease” (The Brigham and Women's Hospital, Inc., priority 1997, dated 2011).

Tests used:
[1] = system: apparently healthy men (US male physicians); assay: Physicians' Health Study: randomized, double-blind, placebo controlled trial of aspirin in primary prevention; risk of first myocardial infarction, stratified by baseline C-reactive protein quartile; type: in vivo, human; settings: 325 mg aspirin on alternate days vs placebo, events prior to Jan. 25, 1988
Procedure: The Physicians' Health Study is a randomized, double-blind, placebo controlled, 2×2 factorial trial of aspirin and beta-carotene in the primary prevention of cardiovascular disease and cancer. A total of 22,071 US male physicians aged 40 to 84 years in 1982 with no history of myocardial infarction, stroke, transient ischemic attack, or cancer were assigned to one of four treatment groups: 325 mg aspirin on alternate days (Bufferin, provided by Bristol-Myers), 50 mg of beta-carotene on alternate days (Lurotin, provided by BASF Corporation), both, or neither. The aspirin component of the PHS was terminated early on Jan. 25, 1988 primarily due to a statistically extreme 44 percent reduction in risk of first infarction in the aspirin group.^1 The beta-carotene component continued to scheduled termination on Dec. 31, 1995.^2 Hospital records (and for fatal events, death certificates and necropsy reports) were requested for all reported cases of myocardial infarction, stroke, and venous thrombosis. Records were reviewed by a committee of physicians using standardized criteria to confirm or refute reported events. Endpoints reviewers were blinded to treatment assignment. Reported myocardial infarction was confirmed if the event met World Health Organization criteria of symptoms plus either elevated enzymes or characteristic electrocardiographic changes. Silent myocardial infarctions were not included since they could not be dated accurately. Deaths due to coronary disease were confirmed based on autopsy reports, symptoms, circumstances of death, and prior history of coronary disease. Reported stroke was confirmed based on medical records showing neurological deficit of sudden or rapid onset persisting for more than 24 hours or until death. Strokes were classified as ischemic or hemorrhagic. Computed tomography was available for more than 95 percent of confirmed strokes. Reported deep venous thrombosis was confirmed by documentation of a positive venography study or a positive ultrasound study; deep venous thrombosis documented only by impedance plethysmography or Doppler examination without ultrasound were not confirmed. […] Using these methods, we evaluated 543 cases and 543 controls in this prospective nested case-control design. Means or proportions for baseline risk factors were calculated for cases and controls. […] Because C-reactive protein levels are skewed, median levels were computed and the significance of any differences in median values between cases and controls assessed using Wilcoxon's Rank Sum Test. […] Similar models were employed to adjust for measured baseline levels of total and HDL cholesterol, triglyceride, lipoprotein(a), tPA antigen, fibrinogen, D-dimer, and homocysteine. […]

[2] = system: apparently healthy men (US male physicians); settings: whole trial population, 325 mg aspirin on alternate days vs placebo (reference 1); cited from earlier work

CC(=O)Oc1ccccc1C(=O)O [aspirin]
reduction in risk of myocardial infarction associated with aspirin use ([1]; first (lowest) quartile of baseline C-reactive protein): 13.9%
reduction in risk of myocardial infarction associated with aspirin use ([1]; fourth (highest) quartile of baseline C-reactive protein): 55.7%
reduction in risk of myocardial infarction associated with aspirin use ([1]; second quartile of baseline C-reactive protein): 33.4%
reduction in risk of myocardial infarction associated with aspirin use ([1]; third quartile of baseline C-reactive protein): 46.3%
reduction in risk of first infarction in the aspirin group [2]: 44%
